One experiment has as its system Csnk2. To be noted: Csnk2 inhibitors listed as examples; cited from earlier work.
Experiment [1] relates to DSS-induced colitis. The experiment is described as follows: DSS colitis model in wild-type mice pre-treated with apigenin. It is filed as in vivo, mouse. From the text:
(§1) Mice and reagents. The Nlrp6-3xFlag-IRES-eGFP mouse was generated at the Institut Clinique de la Souris (Illkirch, France; further details available upon request). Age- and gender-matched Nlrp6-deficient (Nlrp6−/−) and control C57BL6/J mice had free access to a standard laboratory chow diet in a half-day light cycle exposure and temperature-controlled environment. All animal studies were approved by the local investigational review board (CEEA232009R) in an accredited establishment (N° B59-108) according to governmental guidelines N° 86/609/CEE. The experimental model of colitis was performed as previously described 10. Tissue and blood sampling was performed under LD conditions, with ZTO being the start of the light period (8 a.m.) and ZT12 the vespertinal crepuscule (8 p.m.). Apigenin (750 μg/mouse; Santa Cruz) was intraperitoneally given twice a week at ZT6 for 1 or 3 weeks period.
Immunohistochemistry, Immunofluorescence and histological analysis. Intestinal tissue was fixed in formalin, dehydrated in series of increasing concentration of alcohols and toluene before being embedded in paraffin. For immunohistochemistry, 5 μm-thick tissue sections were placed on Superfrost Plus slides (Thermo Scientific), incubated for 10 min at 60° C. and rehydrated through a series of graded alcohols and distilled water. Endogenous peroxidases were blocked by 3% hydrogen peroxide for 10 min. Antigen retrieval was performed in citrate buffer (10 mM, pH 6) by steaming sections in a microwave oven for 20 min. Tissue sections were blocked with 5% BSA/PBS for 30 min at RT and primary Ab against either Ki67 (1:100, ab15580, Abcam), M2 Ab to Flag (1:100, F3165, Sigma) or cleaved caspase3 (1:50, 9661, Cell Signalling) was directly applied and incubated one hour at room temperature (RT) or overnight at 4° C. Slides were washed 3× in PBS before applying either secondary peroxidase-conjugated goat anti-rabbit IgG (1:100, Interchim) or peroxidase conjugated goat anti-mouse IgG (1:100, Interchim) Ab two hours at RT. Targeted antigens were visualized by using 3.3′-diaminobenzidine solution (BD Pharmingen) followed by nuclear counterstain with hematoxylin. Immunofluorescence staining procedure was done by incubation overnight at 4° C. of primary antibody against Lysozyme (A0099, Dako) at 1:1000 according to the protocol provided by Cell Signalling Technology. Secondary Ab (1:200, A11008, Life Technologies) was applied for 1 hour at RT followed by nuclear counterstain with DAPI. Tissue sections were covered by using ProLong® Gold Antifade reagent (Life Technologies). Microscopic analyses were performed by using the Zeiss Axioplan 2 imaging microscope, Axio Imager Z1 microscope, Axiovision software (all from Zeiss, Oberkochen, Germany), and ImageJ software. Staining of cryosections […] was performed to stain GFP on colonic tissue according to manufacturer's instructions (Cell Signaling Technology). Polyclonal rabbit anti-GFP Ab (1/1000, Molecular Probes) and monoclonal rat anti-integrin 6 Ab (1/100, BD Pharmingen) were used as primary Abs and incubated together on the samples for 3 hours at RT. Secondary AF488-coupled goat anti-rabbit Ab and AF594-coupled goat anti-rat Ab (1:500, Molecular Probes) applied for 1 hour at RT followed by counterstain with DAPI. Sections were covered with Mowiol.

Experiment [2] has as its system DSS-induced colitis. The experiment is described as follows: DSS colitis model in Nlrp6-deficient mice pre-treated with apigenin. The experiment is classed as in vivo, mouse.
Description: as §1
Immunohistochemistry, Immunofluorescence and histological analysis. Intestinal tissue was fixed in formalin, dehydrated in series of increasing concentration of alcohols and toluene before being embedded in paraffin. For immunohistochemistry, 5 μm-thick tissue sections were placed on Superfrost Plus slides (Thermo Scientific), incubated for 10 min at 60° C. and rehydrated through a series of graded alcohols and distilled water. Endogenous peroxidases were blocked by 3% hydrogen peroxide for 10 min. Antigen retrieval was performed in citrate buffer (10 mM, pH 6) by steaming sections in a microwave oven for 20 min. Tissue sections were blocked with 5% BSA/PBS for 30 min at RT and primary Ab against either Ki67 (1:100, ab15580, Abcam), M2 Ab to Flag (1:100, F3165, Sigma) or cleaved caspase3 (1:50, 9661, Cell Signalling) was directly applied and incubated one hour at room temperature (RT) or overnight at 4° C. Slides were washed 3× in PBS before applying either secondary peroxidase-conjugated goat anti-rabbit IgG (1:100, Interchim) or peroxidase conjugated goat anti-mouse IgG (1:100, Interchim) Ab two hours at RT. […]

The subject of experiment [3] is colonic IECs. The experiment is described as follows: Colonic IEC proliferation and apoptosis immunostaining (Ki67, caspase-3), wild-type mice. It is filed as in vivo, mouse.
Description: as §1
(§2) Immunohistochemistry, Immunofluorescence and histological analysis. Intestinal tissue was fixed in formalin, dehydrated in series of increasing concentration of alcohols and toluene before being embedded in paraffin. For immunohistochemistry, 5 μm-thick tissue sections were placed on Superfrost Plus slides (Thermo Scientific), incubated for 10 min at 60° C. and rehydrated through a series of graded alcohols and distilled water. Endogenous peroxidases were blocked by 3% hydrogen peroxide for 10 min. […]

Experiment [4] concerns colonic IECs. Put plainly: Colonic IEC proliferation immunostaining (Ki67), Nlrp6-deficient mice. Conditions: three-week regimen of apigenin. It is filed as in vivo, mouse.
Description: as §1, §2

A further experiment concerns clock machinery genes. The experiment is described as follows: Microarray and qRT-PCR gene expression after apigenin administration. The experiment is classed as in vivo, mouse.
Description: as §1
Gene expression and microarray analysis. […] The resulting cDNA (equivalent to 5 ng of total RNA) was amplified using the SYBR Green real-time PCR kit and detected on a Stratagene Mx3005P (Agilent Technologies). […] Relative mRNA levels (2-Ct) were determined by comparing (a) the PCR cycle thresholds (Ct) for the gene of interest and Actb (ΔCt) and (b) ΔCt values for treated and control groups (ΔCt). […]
On the technique in general: Quantitative PCR measures a nucleic acid by following its amplification.

In experiment [5] the test system is gut microbiota. The experiment is described as follows: 16S rRNA gene sequencing of gut microbiota, wild-type mice. It is filed as in vivo, mouse.
Description: as §1
Microbiota analysis. 16S rRNA gene variable region V3 and V4 was amplified using dual indexed fusion primers, in brief primers consist of illumina linker sequence, 12 base barcode sequence and heterogeneity spacer followed by either 16S rRNA gene specific forward (319F: […]; SEQ ID NO: 1) or reverse (806R: […]; SEQ ID NO: 2) primer sequences 29. […] Amplicons quantities were normalized using SEQUALPREP™ kit (Invitrogen) and pooled as a single library. […] Sequencing reads were primarily processed for quality control using the software MOTHUR. Forward and reverse reads were assembled to form contigs, reads not having perfectly matched specific primers and barcodes, having any ambiguous base and more than 8 homopolymers were removed from downstream analysis. Sequences not aligning to desired bacterial V3-V4 variable regions, suspected chimera and likely to be of non-bacterial origin were detected and removed. […] Indicator analysis was performed to identify prominent OTUs contributing to the differences between analysed groups. Non parametric Shannon index of diversity was calculated as a measure of alpha diversity index. Statistical differences were determined by non-parametric Mann-Whitney Test.

The test system of experiment [6] is gut microbiota. The experiment is described as follows: 16S rRNA gene sequencing of gut microbiota, Nlrp6-deficient mice. To be noted: apigenin- versus vehicle-treated Nlrp6-deficient mice, ANOSIM p=0.283. The experiment is classed as in vivo, mouse.
Description: as §1, with “Tissue and blood sampling was performed under LD conditions, with ZTO being the start of the light period (8 a.m.) and ZT12 the vespertinal crepuscule (8 p.m.). Apigenin (750 μg/mouse; Santa Cruz) was intraperitoneally given twice a week at ZT6 for 1 or 3 weeks period.” left out
Microbiota analysis. […] Amplicons quantities were normalized using SEQUALPREP™ kit (Invitrogen) and pooled as a single library. […] Sequencing reads were primarily processed for quality control using the software MOTHUR. Forward and reverse reads were assembled to form contigs, reads not having perfectly matched specific primers and barcodes, having any ambiguous base and more than 8 homopolymers were removed from downstream analysis. Sequences not aligning to desired bacterial V3-V4 variable regions, suspected chimera and likely to be of non-bacterial origin were detected and removed. […] Indicator analysis was performed to identify prominent OTUs contributing to the differences between analysed groups. […] Statistical differences were determined by non-parametric Mann-Whitney Test.

The test system of experiment [7] is mouse embryonic fibroblasts (MEFs). Conditions: U0126 treatment, data not shown.
The mark [8] stands for this setting: wild-type mice, DSS, apigenin administration.

Results on 15 compounds are retold here after US11364219B2, “Methods and pharmaceutical compositions for treating microbiome dysregulations associated with circadian clock disruption” (INSERM (INSTITUT NATIONAL DE LA SANTÉ ET DE LA RECHERCHE …, priority 2016, dated 2022).

The IC50 is the concentration at which inhibition is half-maximal. Usually Ki stands for the equilibrium dissociation constant of an inhibitor or competing ligand from its target.

With `O=C(O)Cc1c2ccccc2n2c1[nH]c(=O)c1ccccc12` [IQA, 5-oxo-5,6-dihydroindolo-(1,2-a) quinazolin-7-yl acetic acid], the IC50 with Csnk2 was 0.39 µM.
As to `O=C(O)c1c[nH]c2c(Cl)cc(Cl)c(Cl)c2c1=O` [compound 7, 5,6,8-trichloro-4-oxo-1,4-dihydroquinoline-3-carboxylic acid], the Ki at Csnk2 is 0.06 µM.
Regarding `Brc1c(Br)c(Br)c2[nH]cnc2c1Br` [TBI, 4,5,6,7-1H-tetrabromobenzimidazole], the Ki at Csnk2 is 0.3 µM.
As to `O=C(O)c1cc(Br)c(Br)c(Br)c1` [compound 26, 3,4,5 tribromobenzoic acid], in the experiment on Csnk2, the IC50 was 0.64 µM.
As to `O=c1cc(-c2ccc(O)cc2)oc2cc(O)cc(O)c12` [apigenin, 4′,5,7-trihydroxyflavone], the anti-inflammatory effect result in the experiment with DSS-induced colitis [1] (mice housed in darkness for three circadian cycles during DSS exposure) is on record as “no anti-inflammatory effect”. Moreover, the body-weight loss entry in the experiment with DSS-induced colitis [1] (wild-type mice on LD cycles, apigenin 3 weeks (750 μg/mouse, twice a week) before 2% DSS) is on record as “less severe body-weight loss”. In the experiment with DSS-induced colitis [1] (setting [8]), the colon length entry was “greater colon length” and the disease-activity index result was “lower disease-activity index”. Moreover, the “infiltration of inflammatory cells (H&E-stained colon sections)” value with DSS-induced colitis [1] (wild-type mice, DSS, versus controls) is listed as “reduced infiltration of inflammatory cells”. The “wasting disease (body weight loss)” value with DSS-induced colitis [2] (apigenin 3 weeks before 2% DSS) was “failed to improve wasting disease”. In the experiment with DSS-induced colitis [2] (apigenin, DSS), the colon length result was “did not alter colon length” and the “inflammation in histological analysis” value is reported as “had no effect on inflammation”. Besides, the “number of caspase-3 positive IECs” value with colonic IECs [3] (three-week regimen of apigenin) was “without any change”. Also, the “IEC proliferation (Ki67 Ab staining)” value with colonic IECs [3] (three-week regimen of apigenin (750 μg/mouse, twice a week)) is reported as “lowered IEC proliferation”. Besides, the “anti-proliferative effect (Ki67)” value with colonic IECs [4] is listed as “abrogated”. In addition, the “colonic transcript levels of several clock machinery genes (qRT-PCR)” value in the experiment with clock machinery genes (apigenin administration, through Nlrp6) is “significantly influenced”. Also, the “genes differentially expressed (microarray)” value in the experiment on clock machinery genes (wild-type mice, Logfc of 1.5, upon apigenin administration) was 54. The “Clostridium sensu stricto and unclassified Ruminococcacceae” value with gut microbiota [5] (apigenin treatment in wild-type mice) is given as “reduction”. In addition, the “genera derived from Bacteroidetes (Alistipes, Parasatuerlla, Bacteroides)” value with gut microbiota [5] (apigenin-induced changes among bacterial OTUs) is on record as “expansion”. The “gut microbiota composition versus controls” value in the experiment with gut microbiota [5] (apigenin-treated wild-type mice, ANOSIM on Jaccard distances, p=0.015) is listed as “markedly different”. The “global changes in the composition of the gut microbiota” value with gut microbiota [6] is “failed to observe global changes”.
Consider `CC(C(=O)O)N1C(=O)c2c(I)c(I)c(I)c(I)c2C1=O` (stereo not shown) [TID46, 2-(4,5,6,7-tetraiodo-1,3-dioxo-1,3-dihydro-2Hisoindol-2-yl)propanoic acid], for which the IC50 in the experiment with Csnk2 is 0.15 µM.
As to `N#CC(=C(/N)Sc1ccccc1N)/C(C#N)=C(\N)Sc1ccccc1N` [U0126], in [7], the “growth rate of treated wild-type MEFs versus similarly treated Nlrp6-deficient MEFs” value is listed as “comparable”.
Regarding `O=C1C=C2CC3(O)COc4c(ccc(O)c4O)C3=C2C=C1O` (stereo not shown) [hematein, 3,4,6a,10-tetrahydroxy-6,7-dihydroindeno[2,1-c] chromen-9-one], the IC50 with Csnk2 is 0.55 µM.
`O=C(O)/C=C/c1ccc[c]([Sb](=[O])([OH])[OH])c1` [compound 10, (E)-3-(3-stibonophenyl)prop-2-enoic acid]: the IC50 in the experiment with Csnk2 was 0.15 µM.
For `O=c1c2c(O)cccc2oc2c([N+](=O)[O-])ccc(O)c12` [MNX, 1,8-dihydroxy-4-nitro-xanthen-9-one], on Csnk2, the Ki was 0.8 µM.
For `O=C(O)/C=C/c1cc(Br)c(Br)c(Br)c1Br` [TBCA, (E)-3-(2,3,4,5-tetrabromophenyl)acrylic acid], the inhibition constant Ki at Csnk2 was 0.077 µM.
`Cc1cc(O)c2c(c1)C(=O)c1cc(O)cc(O)c1C2=O` [emodin, 6-methyl-1,3,8-trihydroxyanthraquinone]: the Ki on Csnk2 was 1.5 µM.
Consider `O=C(O)c1ccc2c(c1)nc(Nc1cccc(Cl)c1)c1ccncc12` [CX-4945, 5-(3-Chloro-phenylamino)-benzo[c] [2,6] naphthyridine-8-carboxylicacid], for which, in the experiment on Csnk2, the IC50 was 0.002 µM.
Consider `Cc1ccc2c(c1S(=O)(=O)O)SC(c1ccc3c(c1)SC(c1ccc(N(C)C)cc1)N3C)N2C` (stereo not shown) [compound 1, 2′-(4-Dimethylamino-phenyl)-3,6,3′-trimethyl-[2,6′]bibenzothiazolyl-7-sulfonic acid], for which the IC50 in the experiment with Csnk2 was 0.5 µM.
With `O=C(O)c1c(Br)c(Br)c(Br)c(Br)c1-c1c2ccc(=O)cc-2oc2cc(O)ccc12` [compound 35, 2,3,4,5-tetrabromo-6-(6-hydroxy-3-oxo-3H-xanthen-9-yl)-benzoic acid], the IC50 in the experiment with Csnk2 is 0.08 µM.
